Experimental data reported in PubChem BioAssay AID1845212 (Molecular Pharmacology Branch, DTP, NCI, 2023).
Several values for one entry are separate records, joined by “and”; a condition that tells them apart may be missing. Equal values may be shown once. Activity calls are given as the source filed them. Rule for the calls: active = viability on the fitted dose curve at most 10% of control; inactive = the rest.

System: NCI-H719 tumor spheroids, viability
Assay: Anticancer human tumor NCI-H719 cell line growth inhibition;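 for IC50: spheroids exposed to compounds for seven days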;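 for viability, T/C: spheroids exposed to compounds for seven days; percent viability relative to DMSO vehicle control as 100%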
Conditions: spheroids with HUVEC and MSC; for viability, T/C: stronger effect = lower value
Summary of the method: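 Complex tumor spheroids combined malignant cells with endothelial cells and mesenchymal stem cells. DNA-damaging drugs and DNA repair inhibitors were tested alone and in combination, at half-log dilutions down from clinical Cmax (top 10 microM if Cmax unknown), 0.25% DMSO final.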

[1] = curve of first compound, second compound 1 µM
[2] = curve of first compound, second compound 3.16 µM
[3] = curve of first compound, second compound 10 µM
[4] = curve of first compound, second compound 31.6 µM
[5] = curve of first compound, second compound 100 µM
[6] = second compound 1 µM, first compound 0.0316 µM
[7] = second compound 1 µM, first compound 0.1 µM
[8] = second compound 1 µM, first compound 0.316 µM
[9] = second compound 1 µM, first compound 1 µM
[10] = second compound 1 µM, first compound 3.16 µM
[11] = second compound 1 µM, first compound 10 µM
[12] = second compound 3.16 µM, first compound 0.0316 µM
[13] = second compound 3.16 µM, first compound 0.1 µM
[14] = second compound 3.16 µM, first compound 0.316 µM
[15] = second compound 3.16 µM, first compound 1 µM
[16] = second compound 3.16 µM, first compound 3.16 µM
[17] = second compound 3.16 µM, first compound 10 µM
[18] = second compound 10 µM, first compound 0.0316 µM
[19] = second compound 10 µM, first compound 0.1 µM
[20] = second compound 10 µM, first compound 0.316 µM
[21] = second compound 10 µM, first compound 1 µM
[22] = second compound 10 µM, first compound 3.16 µM
[23] = second compound 10 µM, first compound 10 µM
[24] = second compound 31.6 µM, first compound 0.0316 µM
[25] = second compound 31.6 µM, first compound 0.1 µM
[26] = second compound 31.6 µM, first compound 0.316 µM
[27] = second compound 31.6 µM, first compound 1 µM
[28] = second compound 31.6 µM, first compound 3.16 µM
[29] = second compound 31.6 µM, first compound 10 µM
[30] = second compound 100 µM, first compound 0.0316 µM
[31] = second compound 100 µM, first compound 0.1 µM
[32] = second compound 100 µM, first compound 0.316 µM
[33] = second compound 100 µM, first compound 1 µM
[34] = second compound 100 µM, first compound 3.16 µM
[35] = second compound 100 µM, first compound 10 µM

Cc1cc(C)c(CNC(=O)c2cc(-c3ccc(CN4CCOCC4)cc3)cc3c2cnn3C2CCCC2)c(=O)[nH]1 + Cn1nnc2c(C(N)=O)ncn2c1=O gave an IC50 [1] of over 10000 nM, an IC50 [2] of over 10000 nM and an IC50 [3] of over 10000 nM. It also gave an IC50 [4] of over 10000 nM, an IC50 [5] of over 10000 nM and a viability, T/C [6] of 96.9%. The viability, T/C [7] was 105%, the viability, T/C [8] was 100% and the outcome [9] was “inactive”. The viability, T/C [10] was 94%, the viability, T/C [11] was 76.5% and the viability, T/C [12] was 105%. For the same compound, the viability, T/C [13] was 102%, the viability, T/C [14] was 108% and the viability, T/C [15] was 107%. It also gave a viability, T/C [16] of 92.2%, a viability, T/C [17] of 82.2% and a viability, T/C [18] of 105%. For the same compound, the outcome [19] was “inactive”, the viability, T/C [20] was 108% and the viability, T/C [21] was 110%. The viability, T/C [22] was 94.3%, the viability, T/C [23] was 94.5% and the viability, T/C [24] was 113%. The viability, T/C [25] was 119%, the viability, T/C [26] was 123% and the viability, T/C [27] was 108%. For the same compound, the viability, T/C [28] was 94.6%, the viability, T/C [29] was 85.7% and the viability, T/C [30] was 101%. It also gave a viability, T/C [31] of 108%, a viability, T/C [32] of 103% and a viability, T/C [33] of 103%. For the same compound, the viability, T/C [34] was 107% and the viability, T/C [35] was 76.8%.

In the case of [2H]c1nc(C)nc([2H])c1-c1cc(NC[C@@H](C)c2cccc3c(C(=O)NC)ccnc23)ncn1, the viability, T/C (compound 0.0316 µM) is reported as 94% and 100% and 109%, the viability, T/C (compound 0.1 µM) is reported as 99.8% and 100% and 112% and the viability, T/C (compound 0.316 µM) is reported as 91.7% and 123%. The outcome (compound 0.316 µM) was “inactive”, the viability, T/C (compound 1 µM) was 88.7% and 104% and 94.6% and the viability, T/C (compound 3.16 µM) was 71.9% and 105% and 111%. The viability, T/C (compound 10 µM) was 99.7% and 92.6% and 95.8% and the IC50 (curve of compound) was over 10000 nM.

Work on COc1ccc([C@@H](O)c2cc(-c3ncnc4cc(N5CCOCC5)ccc34)c(F)cc2Cl)nn1 + Cn1nnc2c(C(N)=O)ncn2c1=O yielded an IC50 [1] of 797 nM, an IC50 [2] of 873 nM and an IC50 [3] of 1100 nM. The IC50 [4] was 810 nM, the IC50 [5] was 506 nM and the viability, T/C [6] was 80.1%. It also gave a viability, T/C [7] of 78.5%, a viability, T/C [8] of 76.6% and a viability, T/C [9] of 34.6%. For the same compound, the viability, T/C [10] was 46.3%, the viability, T/C [11] was 49.5% and the viability, T/C [12] was 102%. It also gave a viability, T/C [13] of 83.7%, a viability, T/C [14] of 77.8% and a viability, T/C [15] of 40.8%. It also gave a viability, T/C [16] of 45.6%, a viability, T/C [17] of 52.4% and a viability, T/C [18] of 99.2%. For the same compound, the viability, T/C [19] was 94.1%, the viability, T/C [20] was 65.6% and the viability, T/C [21] was 50.8%. It also gave a viability, T/C [22] of 48.9%, a viability, T/C [23] of 33.8% and a viability, T/C [24] of 99.3%. It also gave a viability, T/C [25] of 101%, a viability, T/C [26] of 68.1% and a viability, T/C [27] of 46.7%. It also gave a viability, T/C [28] of 30.4%, a viability, T/C [29] of 20.8% and a viability, T/C [30] of 89.9%. It also gave a viability, T/C [31] of 81%, a viability, T/C [32] of 55% and a viability, T/C [33] of 36.5%. The viability, T/C [34] was 34% and the viability, T/C [35] was 17.3%.

For Cc1cc(C)c(CNC(=O)c2cc(-c3ccc(CN4CCOCC4)cc3)cc3c2cnn3C2CCCC2)c(=O)[nH]1, the viability, T/C (compound 0.0316 µM) was 80.8% and 102% and 115%, the viability, T/C (compound 0.1 µM) was 83.4% and 99.2% and 117% and the viability, T/C (compound 0.316 µM) was 84.8% and 97.1% and 111%. For the same compound, the viability, T/C (compound 1 µM) was 79.3% and 108% and 121%, the viability, T/C (compound 3.16 µM) was 114% and 92.6% and 103% and the viability, T/C (compound 10 µM) was 77.5% and 87.8% and 72.1%. It also gave an IC50 (curve of compound) of over 10000 nM.

Work on COc1ccc([C@@H](O)c2cc(-c3ncnc4cc(N5CCOCC5)ccc34)c(F)cc2Cl)nn1 + COc1cc2c(cc1O)CCNC21CSC2c3c(OC(C)=O)c(C)c4c(c3C(COC1=O)N1C(O)C3Cc5cc(C)c(OC)c(O)c5C(C21)N3C)OCO4 yielded an IC50 (curve of first compound, second compound 30 pM) of 1110 nM, an IC50 (curve of first compound, second compound 94.9 pM) of under 31.6 nM and an IC50 (curve of first compound, second compound 0.0003 µM) of under 31.6 nM. It also gave an IC50 (curve of first compound, second compound 0.000949 µM) of under 31.6 nM, an IC50 (curve of first compound, second compound 0.003 µM) of under 31.6 nM and a viability, T/C (second compound 30 pM, first compound 0.0316 µM) of 81.5%. It also gave a viability, T/C (second compound 30 pM, first compound 0.1 µM) of 100%, a viability, T/C (second compound 30 pM, first compound 0.316 µM) of 75.2% and a viability, T/C (second compound 30 pM, first compound 1 µM) of 52.4%. It also gave a viability, T/C (second compound 30 pM, first compound 3.16 µM) of 22%, a viability, T/C (second compound 30 pM, first compound 10 µM) of 3.59% and a viability, T/C (second compound 94.9 pM, first compound 0.0316 µM) of 49.7%. It also gave a viability, T/C (second compound 94.9 pM, first compound 0.1 µM) of 25.2%, a viability, T/C (second compound 94.9 pM, first compound 0.316 µM) of 44% and a viability, T/C (second compound 94.9 pM, first compound 1 µM) of 27.7%. For the same compound, the viability, T/C (second compound 94.9 pM, first compound 3.16 µM) was 8.27%, the viability, T/C (second compound 94.9 pM, first compound 10 µM) was 3% and the viability, T/C (second compound 0.0003 µM, first compound 0.0316 µM) was 13.6%. For the same compound, the viability, T/C (second compound 0.0003 µM, first compound 0.1 µM) was 8.22%, the viability, T/C (second compound 0.0003 µM, first compound 0.316 µM) was 10.1% and the viability, T/C (second compound 0.0003 µM, first compound 1 µM) was 6.05%. For the same compound, the viability, T/C (second compound 0.0003 µM, first compound 3.16 µM) was 3.35%, the viability, T/C (second compound 0.0003 µM, first compound 10 µM) was 1.11% and the viability, T/C (second compound 0.000949 µM, first compound 0.0316 µM) was 8.53%. For the same compound, the viability, T/C (second compound 0.000949 µM, first compound 0.1 µM) was 8.3%, the viability, T/C (second compound 0.000949 µM, first compound 0.316 µM) was 7.46% and the viability, T/C (second compound 0.000949 µM, first compound 1 µM) was 4.41%. For the same compound, the viability, T/C (second compound 0.000949 µM, first compound 3.16 µM) was 1.46%, the viability, T/C (second compound 0.000949 µM, first compound 10 µM) was 0.7% and the viability, T/C (second compound 0.003 µM, first compound 0.0316 µM) was 0.57%. For the same compound, the viability, T/C (second compound 0.003 µM, first compound 0.1 µM) was 0.58%, the viability, T/C (second compound 0.003 µM, first compound 0.316 µM) was 0.46% and the viability, T/C (second compound 0.003 µM, first compound 1 µM) was 0.68%. The viability, T/C (second compound 0.003 µM, first compound 3.16 µM) was 0.54% and the viability, T/C (second compound 0.003 µM, first compound 10 µM) was 0.45%.

With COc1ccc([C@@H](O)c2cc(-c3ncnc4cc(N5CCOCC5)ccc34)c(F)cc2Cl)nn1 the viability, T/C (compound 0.0316 µM) was 103% and 90.6% and 75%, the viability, T/C (compound 0.1 µM) was 109% and 83.6% and 83.3% and the viability, T/C (compound 0.316 µM) was 79.3% and 76.5% and 84.2%. For the same compound, the viability, T/C (compound 1 µM) was 65.6% and 58.1% and 69%, the viability, T/C (compound 3.16 µM) was 47.3% and 57.3% and 87.8% and the viability, T/C (compound 10 µM) was 15.5% and 53.7% and 58.8%. The IC50 (curve of compound) was 2360 nM and > 10000 nM.
